According to US12116358B2, “Substituted indoles and methods of use thereof” (EPIZYME, INC., priority 2018, dated 2024):
Where two headings read alike, the source gives them in different places.

Columns and labels:
SETD2(1434-1711) = biological target: T1, SETD2(1434-1711) (Homo sapiens, UniProt Q9BYW2); experiment: SETD2 (1434-1711) assay; assay type: biochemical; details: read-out: SETD2 (1434-1711)
T1 construct: SETD2 (1434-1711) Assay; catalogue N/A
T1 sequence (Q9BYW2 1434-1711): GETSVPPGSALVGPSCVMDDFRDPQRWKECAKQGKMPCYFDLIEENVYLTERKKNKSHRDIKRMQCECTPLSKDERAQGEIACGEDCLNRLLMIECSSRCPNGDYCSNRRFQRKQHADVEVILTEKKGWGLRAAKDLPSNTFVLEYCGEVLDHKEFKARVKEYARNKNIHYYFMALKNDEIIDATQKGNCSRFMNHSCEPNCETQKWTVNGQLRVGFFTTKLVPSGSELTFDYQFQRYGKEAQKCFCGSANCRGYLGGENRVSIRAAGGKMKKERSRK

H3K36me3 in A549 cells = experiment: In-Cell Western (ICW) assay of SETD2 inhibitors (A549 assay); assay type: cell-based, human; details: A549 cells, read-out: SETD2 A549
Outline: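 A549 cells seeded at 4,000/well onto compound and incubated 3 days at 37° C. Methanol-fixed cells stained overnight at 4° C with anti-H3K36me3 (1:1000), then IRDye 800CW secondary with DRAQ5 DNA counterstain. Plates read by Licor imaging at 700 and 800 channels.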

Row | Compound | IC50 (SETD2(1434-1711)) [µM] | IC50 (H3K36me3 in A549 cells; Homo sapiens) [µM] | IC50 (H3K36me3 in A549 cells) [µM]
1 | Cc1cc(C(=O)NC2CCN(C)CC2)cnc1C(NC(=O)c1cc2cccc(C)c2[nH]1)C1CC1 (stereo not drawn) [compound 470] | 0.6 | 8 | –
2 | CCC(NC(=O)c1cc2cccc(C)c2[nH]1)c1ncccc1C (stereo not drawn) [compound 471] | 5.4 | 8.5 | –
3 | Cc1cc2ccccc2nc1C(NC(=O)c1cc2cccc(C)c2[nH]1)C1CC1 (stereo not drawn) [compound 472] | 0.9 | – | 8.5
4 | Cc1cccc2cc(C(=O)Nc3ccc4nc(NC5CCNCC5)ncc4c3)[nH]c12 [compound 473] | 0.2 | – | 8.8
5 | Cc1cccnc1C(NC(=O)c1cc2cccc(C)c2[nH]1)C(C)C (stereo not drawn) [compound 474] | 4.2 | 8.9 | –
6 | Cc1ccc(N2CCN(S(=O)(=O)CCN)CC2)cc1NC(=O)c1cc2cccc(C)c2[nH]1 [compound 476] | 0.8 | 9.1 | –
7 | Cc1cc(CN2CCN(C)CC2)cnc1C(NC(=O)c1cc2cccc(C)c2[nH]1)C1CC1 (stereo not drawn) [compound 477] | 2.1 | 9.3 | –
8 | Cc1cccc2cc(C(=O)Nc3cccc(CN4CCOCC4)c3)[nH]c12 [compound 478] | 4.1 | 9.4 | –
9 | Cc1cccnc1C(C)NC(=O)c1cc2cccc(C)c2[nH]1 (stereo not drawn) [compound 480] | 7 | 9.5 | –
10 | Cc1cc2nccn2nc1C(NC(=O)c1cc2c(F)ccc(C)c2[nH]1)C1CC1 (stereo not drawn) [compound 481] | 1.9 | – | 9.7
11 | Cc1cccc2cc(C(=O)NC3C(=O)NCCc4ccccc43)[nH]c12 (stereo not drawn) [compound 482] | 2.2 | – | 10.2
12 | Cc1cccc2cc(C(=O)NCC(C)c3ccccc3N3CCOCC3)[nH]c12 (stereo not drawn) [compound 483] | 4.1 | – | 10.3
13 | Cc1cccc2cc(C(=O)Nc3cnc4nccn4c3)[nH]c12 [compound 484] | 7.6 | – | 10.6
14 | CCN(CC)Cc1cccc(NC(=O)c2cc3cccc(C)c3[nH]2)c1 [compound 486] | 1.8 | 10.8 | –
15 | Cc1cccc2cc(C(=O)Nc3ccc4ccc(CN5CCOCC5)cc4c3)[nH]c12 [compound 487] | 1.6 | – | 11
16 | Cc1cccc2cc(C(=O)Nc3cccc(CN4CCN(C)CC4)c3)[nH]c12 [compound 488] | 2.5 | – | 11.8
17 | Cc1cccnc1C(CN1CCOCC1)NC(=O)c1cc2cccc(C)c2[nH]1 (stereo not drawn) [compound 489] | 7.9 | 11.8 | –
18 | Cc1ccc(N2CCOCC2)cc1NC(=O)c1cc2cccc(C)c2[nH]1 [compound 490] | 6.5 | – | 12.1
19 | Cc1ccc(F)c2cc(C(=O)NC(C(=O)N(C)C)c3ccccn3)[nH]c12 (stereo not drawn) [compound 491] | 12.1 | – | 12.2
20 | Cc1cccc(O)c1C(NC(=O)c1cc2cccc(C)c2[nH]1)C1CC1 (stereo not drawn) [compound 492] | > 50 | 12.5 | –
21 | Cc1cncnc1C(NC(=O)c1cc2cccc(C)c2[nH]1)C1CC1 (stereo not drawn) [compound 493] | > 50 | 13.1 | –
22 | Cc1cccnc1C(CCCC(=O)N1CCOCC1)NC(=O)c1cc2cccc(C)c2[nH]1 (stereo not drawn) [compound 494] | 6 | – | 13.2
23 | Cc1cccc2cc(C(=O)Nc3ccc4ncc(CN(C)C)n4c3C)[nH]c12 [compound 495] | 1.8 | – | 13.3
24 | Cc1cc(C(=O)N[C@H]2CC[C@H](N)CC2)cnc1C(NC(=O)c1cc2cccc(C)c2[nH]1)C1CC1 (stereo partly drawn) [compound 496] | 0.4 | – | 13.4
25 | Cc1ccc(F)c2cc(C(=O)NC3CCCc4cccnc43)[nH]c12 (stereo not drawn) [compound 498] | 9.4 | – | 13.8
26 | CC(=O)N1CCN(c2ccccc2CNC(=O)c2cc3cccc(C)c3[nH]2)CC1 [compound 499] | 9.1 | – | 13.9

Row | Compound | IC50 (SETD2(1434-1711)) [µM] | IC50 (H3K36me3 in A549 cells; Homo sapiens) [µM] | IC50 (H3K36me3 in A549 cells) [µM]
27 | Cc1cccnc1C(CC1CC1)NC(=O)c1cc2cccc(C)c2[nH]1 (stereo not drawn) [compound 500] | 3 | – | 14.5
28 | Cc1ccc(F)c2cc(C(=O)Nc3cccc(-c4cnc(N)[nH]4)c3)[nH]c12 [compound 501] | 0.4 | – | 14.6
29 | Cc1ccc(F)c2cc(C(=O)Nc3cccc(-c4cc(N)on4)c3)[nH]c12 [compound 502] | 0.5 | – | 14.7
30 | Cc1ccc(F)c2cc(C(=O)NC(C(N)=O)c3ccccn3)[nH]c12 (stereo not drawn) [compound 503] | 9.7 | – | 14.8
31 | Cc1cccc2cc(C(=O)N[C@H]3CC[C@H](C)CC3)[nH]c12 [compound 504] | 3.8 | – | 14.9
32 | Cc1cccc2cc(C(=O)NC3CCOCC3)[nH]c12 [compound 505] | 11.2 | – | 14.9
33 | Cc1ccc(=O)[nH]c1C(NC(=O)c1cc2cccc(C)c2[nH]1)C1CC1 (stereo not drawn) [compound 506] | 4.9 | – | 15.1
34 | Cc1cccc2cc(C(=O)NCC3CCCCC3N3CCOCC3)[nH]c12 (stereo not drawn) [compound 508] | 10.4 | – | 15.2
35 | Cc1cc(C(=O)NC2CCNC2)cnc1C(NC(=O)c1cc2cccc(C)c2[nH]1)C1CC1 (stereo not drawn) [compound 510] | 0.6 | – | 15.5
36 | Cc1cccc2cc(C(=O)NCCc3ccccc3N3CCOCC3)[nH]c12 [compound 511] | 11.6 | 15.8 | –
37 | CC(=O)N[C@H]1CC[C@H](NC(=O)c2cc3c(F)ccc(C)c3[nH]2)CC1 [compound 512] | 13.2 | – | 16.1
38 | Cc1cccnc1C(NC(=O)c1cc2cccc(C)c2[nH]1)C1CCC1 (stereo not drawn) [compound 513] | 4 | – | 17.4
39 | COc1ccc(C)c2[nH]c(C(=O)NC(CCC(=O)N3CCOCC3)c3ncccc3C)cc12 (stereo not drawn) [compound 514] | 24.9 | – | 18.3
40 | COc1cccc2cc(C(=O)NC(CCC(=O)N3CCOCC3)c3ncccc3C)[nH]c12 (stereo not drawn) [compound 515] | 25.1 | – | 18.5
41 | Cc1cc(C(=O)NC2CCC(N)C2)cnc1C(NC(=O)c1cc2cccc(C)c2[nH]1)C1CC1 (stereo not drawn) [compound 516] | 0.4 | – | 18.5
42 | Cc1ccc(F)c2cc(C(=O)NC(C(=O)Nc3ccccc3)c3ccccn3)[nH]c12 (stereo not drawn) [compound 517] | 3.7 | – | 18.5
43 | Cc1ccc(F)c2cc(C(=O)Nc3nnc(C4CCN(C)CC4)s3)[nH]c12 [compound 519] | 50 | – | 19.3
44 | Cc1cccc2cc(C(=O)NC3CC(=O)Nc4ccccc4C3)[nH]c12 (stereo not drawn) [compound 520] | 12.3 | – | 19.8
45 | CCc1cccnc1C(NC(=O)c1cc2cccc(C)c2[nH]1)C1CC1 (stereo not drawn) [compound 521] | 6.9 | 19.9 | –
46 | Cc1cccc2cc(C(=O)NC3CCCCC3)[nH]c12 [compound 522] | 10.6 | – | 20.6
47 | Cc1cccnc1C(CCC(=O)Nc1cccnc1)NC(=O)c1cc2cccc(C)c2[nH]1 (stereo not drawn) [compound 523] | 8.8 | – | 20.8
48 | Cc1ccc(F)c2cc(C(=O)Nc3cccc(-c4nnc(N)[nH]4)c3)[nH]c12 [compound 524] | 1.5 | – | 20.9
49 | COC(=O)CC(NC(=O)c1cc2cccc(C)c2[nH]1)c1ccc(Br)cc1 (stereo not drawn) [compound 525] | 12.6 | – | 20.9
50 | Cc1cccc2cc(C(=O)Nc3ccc4ccccc4c3)[nH]c12 [compound 526] | 1.9 | 22.6 | –
51 | COC(=O)CC(NC(=O)c1cc2cccc(C)c2[nH]1)c1ccc(C#N)cc1 (stereo not drawn) [compound 527] | 14.7 | – | 24.2
